According to patent US4304784A, “Composition and method for inhibiting platelet aggregation” (Takeda Chemical Industries, Ltd., priority 1978, dated 1981):
Like-named read-outs stand apart in the source and are kept apart here.

Assays:
[1] = test system: ADP-induced platelet aggregation; assay: Inhibitory activity to the ADP-induced platelet aggregation measured by the platelet-counting-method, rat PRP; assay type: cell-based; conditions: platelet counting (Coulter Counter)
Description: (b) Inhibitory activity to the ADP-induced platelet aggregation measured by the platelet-counting-method.
The test drug was dissolved in Na-isotonic 0.02 M Tris-HCl buffer (pH 7.4) containing 1% of dimethylformamide and to 1.5 ml of the test drug solution was added 0.5 ml of the rat-PRP. The mixture was incubated at 37° C. for one minute, followed by the addition of 1 ml of 5×10^-5 M-ADP-physiological saline, and further incubated for 45 seconds. To the solvent as mentioned above was added rat-PRP of the same volume as above. The mixture was incubated at 37° C. for one minute, which was used as the control preparation.
The rate of non-aggregation (inhibitory rate of aggregation) was assayed against the control by counting the number of the platelets in each sample as a single platelet by means of Coulter Counter and by determining the number of the platelets after the addition of ADP as non-aggregated platelets.

[2] = test system: primary aggregation of platelets by ADP; assay: Inhibitory activity to the (primary) platelet aggregation induced by ADP, aggregation meter, rat PRP; assay type: cell-based; conditions: average of 5 cases
Description: (a) Inhibitory activity to the platelet aggregation induced by ADP (adenosine diphosphate)
(§1) With a siliconized injection syringe wetted with heparin, a blood sample was taken from the descending artery of a rat and centrifuged at 4° C. and 1,000 r.p.m. for 10 minutes to obtain a platelet-rich plasma (PRP). The test drug solutions were prepared as follows. The test drug was dissolved in 0.02 M Tris-HCl buffer containing 1% of dimethylformamide and isotonicated with sodium (pH 7.4). To 0.4 ml of the above PRP was added 3.0 ml of the test drug solution, followed by the addition of 0.1 ml of 10^-4 M ADP. The resultant aggregation of platelets was measured with an aggregation meter [Nippon Bunko Medical K.K.]. The activity of the test drug was first assayed by determining the primary aggregation inhibitory effect in terms of inhibition rate (%) in relation to the maximum light transmittance of control PRP which is altered by ADP.
The inhibition rates shown are each an average of 5 cases.

[3] = test system: platelet aggregation by ADP; assay: Platelet aggregation inhibitory activity after oral administration to rats (blood sampled one hour after dosing); assay type: in vivo; conditions: rat
Description: as §1
(2) The platelet aggregation inhibitory activity of Compound (I) (oral administration)
In one hour after oral administration of the test drug to rats, a blood sample was taken from each of the tested rats and the inhibition rate was assayed in accordance with the procedure as mentioned above (1)-a).

mice = conditions: mouse, in vivo
Description: (3) The toxicity of compound (I)

[4] = test system: thrombocyte (platelet) aggregation; assay: Inhibition activity of platelet aggregation in mammalian blood (general statement)

COc1ccc2c(c1)c(CC(=O)O)c(C)n2C(=O)c1ccc(Cl)cc1 [Indomethacin]
Rate of inhibition of the aggregation ([1]; 0.5 × 10^-4 mol. conc.): 8.18 ± 2.21%
Rate of inhibition of the aggregation ([1]; 1 × 10^-4 mol. conc.): 0.85 ± 0.20%
Rate of inhibition of the aggregation ([1]; 5 × 10^-4 mol. conc.): 64.66 ± 1.76%
Rate of inhibition of the primary aggregation of platelets by ADP ([2]; 1.0 × 10^-4 mol. conc.): 8.0%
Rate of inhibition of the primary aggregation of platelets by ADP ([2]; 2.5 × 10^-4 mol. conc.): 31.5%
Rate of inhibition of the primary aggregation of platelets by ADP ([2]; 5.0 × 10^-4 mol. conc.): 71.4%
Rate of inhibition of the platelet aggregation by ADP ([3]; 5 mg/kg body weight): 12.5%
Rate of inhibition of the platelet aggregation by ADP ([3]; 10 mg/kg body weight): 12.4%
Rate of inhibition of the platelet aggregation by ADP ([3]; 25 mg/kg body weight): 11.2%

O=C1c2ccccc2SC12CC2 [Compound (I), 3-oxo-2,3-dihydro[1]benzothiophene-2-spirocyclopropane]
toxic reactions (mice; ip, 100 mg/kg): nor was any toxic reaction noted
toxic reactions (mice; po, 300 mg/kg): No toxic reactions were elicited
Rate of inhibition of the aggregation ([1]; 0.5 × 10^-4 mol. conc.): 13.02 ± 2.20%
Rate of inhibition of the aggregation ([1]; 1 × 10^-4 mol. conc.): 16.09 ± 3.14%
Rate of inhibition of the aggregation ([1]; 5 × 10^-4 mol. conc.): 80.98 ± 2.92%
inhibition activity of thrombocyte (platelet) aggregation [4]: strong inhibition activity
Rate of inhibition of the primary aggregation of platelets by ADP ([2]; 0.5 × 10^-4 mol. conc.): 10.9%
Rate of inhibition of the primary aggregation of platelets by ADP ([2]; 0.75 × 10^-4 mol. conc.): 52.4%
Rate of inhibition of the primary aggregation of platelets by ADP ([2]; 1.0 × 10^-4 mol. conc.): 82.3%
Rate of inhibition of the primary aggregation of platelets by ADP ([2]; 2.5 × 10^-4 mol. conc.): 96.9%
Rate of inhibition of the primary aggregation of platelets by ADP ([2]; 5.0 × 10^-4 mol. conc.): 97.7%
Rate of inhibition of the platelet aggregation by ADP ([3]; 5 mg/kg body weight): -3.6%
Rate of inhibition of the platelet aggregation by ADP ([3]; 10 mg/kg body weight): 12.7%
Rate of inhibition of the platelet aggregation by ADP ([3]; 25 mg/kg body weight): 20.0%
Rate of inhibition of the platelet aggregation by ADP ([3]; 50 mg/kg body weight): 21.9%

CC(C(=O)O)c1cccc(C(=O)c2ccccc2)c1 (centres unmarked) [Ketoprofen]
Rate of inhibition of the primary aggregation of platelets by ADP ([2]; 1.0 × 10^-4 mol. conc.): 19.6%
Rate of inhibition of the primary aggregation of platelets by ADP ([2]; 2.5 × 10^-4 mol. conc.): 36.0%
Rate of inhibition of the primary aggregation of platelets by ADP ([2]; 5.0 × 10^-4 mol. conc.): 71.5%
Rate of inhibition of the platelet aggregation by ADP ([3]; 10 mg/kg body weight): 7.2%
Rate of inhibition of the platelet aggregation by ADP ([3]; 25 mg/kg body weight): 13.5%
Rate of inhibition of the platelet aggregation by ADP ([3]; 50 mg/kg body weight): 18.6%

CC(=O)Oc1ccccc1C(=O)O [Aspirin]
Rate of inhibition of the aggregation ([1]; 0.5 × 10^-4 mol. conc.): 6.51 ± 1.86%
Rate of inhibition of the aggregation ([1]; 1 × 10^-4 mol. conc.): -15.81 ± 5.65%
Rate of inhibition of the aggregation ([1]; 5 × 10^-4 mol. conc.): -7.11 ± 0.98%
Rate of inhibition of the primary aggregation of platelets by ADP ([2]; 1.0 × 10^-4 mol. conc.): 10.6%
Rate of inhibition of the primary aggregation of platelets by ADP ([2]; 2.5 × 10^-4 mol. conc.): 28.8%
Rate of inhibition of the primary aggregation of platelets by ADP ([2]; 5.0 × 10^-4 mol. conc.): 60.4%
Rate of inhibition of the platelet aggregation by ADP ([3]; 50 mg/kg body weight): 0%
Rate of inhibition of the platelet aggregation by ADP ([3]; 100 mg/kg body weight): 4.3%

CCOC(=O)COc1ccc2c(C)c(CCN(CC)CC)c(=O)oc2c1 [Carbochromen]
Rate of inhibition of the aggregation ([1]; 0.5 × 10^-4 mol. conc.): 5.12 ± 2.20%
Rate of inhibition of the aggregation ([1]; 1 × 10^-4 mol. conc.): 12.75 ± 2.26%
Rate of inhibition of the aggregation ([1]; 5 × 10^-4 mol. conc.): 15.95 ± 1.87%
